Reference: patent US10053417B2, “Neprilysin inhibitors” (THERAVANCE BIOPHARMA R&D IP, LLC, priority 2013, dated 2018)

Target: T1, human NEP (Homo sapiens, UniProt P08473)
T1 construct: purchased R&D Systems, Minneapolis, Minn; 1182-ZN
Experiment: In vitro enzyme inhibition assay, inhibitor potency at human NEP (Assay 1)
Type: biochemical
Settings: recombinant human NEP; fluorogenic peptide substrate 10 μM; 37° C.; values given as ranges
Procedure, shortened: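 Recombinant human NEP pre-incubated 30 min at 37 °C with compound ([…]), then 10 μM Mca-D-Arg-Arg-Leu-Dap-(Dnp)-OH added in 50 mM HEPES pH 7.5, 100 mM NaCl, 0.01% Tween-20, 10 μM ZnSO4; stopped after 20 min with acetic acid. Fluorescence ex 320/em 405 nm; Ki from nonlinear regression, reported as pKi.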

T1 sequence (P08473 52-750 limits assumed): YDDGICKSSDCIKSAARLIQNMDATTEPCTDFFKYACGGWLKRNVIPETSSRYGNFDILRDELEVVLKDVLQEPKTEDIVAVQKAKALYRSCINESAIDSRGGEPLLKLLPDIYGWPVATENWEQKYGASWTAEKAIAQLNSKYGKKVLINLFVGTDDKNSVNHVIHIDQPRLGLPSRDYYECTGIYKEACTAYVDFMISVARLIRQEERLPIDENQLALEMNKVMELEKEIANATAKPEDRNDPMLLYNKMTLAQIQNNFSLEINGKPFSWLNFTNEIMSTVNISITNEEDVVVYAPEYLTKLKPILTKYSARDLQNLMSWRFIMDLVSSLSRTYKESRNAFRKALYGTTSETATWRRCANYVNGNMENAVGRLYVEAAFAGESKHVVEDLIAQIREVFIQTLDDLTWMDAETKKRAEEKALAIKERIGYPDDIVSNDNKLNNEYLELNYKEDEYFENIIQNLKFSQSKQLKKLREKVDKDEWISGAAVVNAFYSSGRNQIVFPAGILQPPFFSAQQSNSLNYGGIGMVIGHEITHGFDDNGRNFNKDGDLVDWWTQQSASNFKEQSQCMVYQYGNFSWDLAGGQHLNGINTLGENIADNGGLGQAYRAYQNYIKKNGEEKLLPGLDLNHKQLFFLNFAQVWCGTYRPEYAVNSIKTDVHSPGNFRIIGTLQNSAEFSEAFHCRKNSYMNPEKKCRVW

A Ki of no more than 0.001 µM was found for O=C(NNc1ccc([N+](=O)[O-])cc1[N+](=O)[O-])C(=O)N[C@H](Cc1ccc(-c2cccc(Cl)c2)cc1)C[C@@H](O)C(=O)O [Example 5, (2R,4R)-5-(3′-Chlorobiphenyl-4-yl)-4-{[N′-(2,4-dinitrophenyl)-hydrazinooxalyl]-amino}-2-hydroxypentanoic Acid] in this work.

A Ki of 0.001 to 0.01 µM was found for O=C(NNC(=O)c1ccccc1[N+](=O)[O-])C(=O)N[C@H](Cc1ccc(-c2cccc(Cl)c2)cc1)C[C@@H](O)C(=O)O [Example 8-6, (2R,4R)-5-(3′-Chlorobiphenyl-4-yl)-2-hydroxy-4-{2-[N′-(2-nitro-benzoyl)-hydrazino]-2-oxo-acetylamino}pentanoic acid] in this work.

A Ki of 0.01 to 0.0316 µM was found for O=C(NOCc1ccccc1)C(=O)N[C@H](Cc1ccc(-c2cccc(Cl)c2)cc1)C[C@@H](O)C(=O)O [Example 4-5, (2R,4R)-4-(Benzyloxyaminooxalylamino)-5-(3′-chlorobiphenyl-4-yl)-2-hydroxy-pentanoic acid] in this work.

A Ki of 0.01 to 0.0316 µM was found for CCOCC(=O)N[C@H](Cc1ccc(-c2cccc(Cl)c2)cc1)C[C@@H](O)C(=O)O [Example 10-3, (2R,4R)-5-(3′-Chlorobiphenyl-4-yl)-4-(2-ethoxyacetylamino)-2-hydroxy-pentanoic acid] in this work.

A Ki of 0.001 to 0.01 µM was found for O=C(NNc1cccnc1)C(=O)N[C@H](Cc1ccc(-c2cccc(Cl)c2)cc1)C[C@@H](O)C(=O)O [Example 6-4, (2R,4R)-5-(3′-Chlorobiphenyl-4-yl)-2-hydroxy-4-[(N′-pyridin-3-yl-hydrazino-oxalyl)-amino]pentanoic acid] in this work.

A Ki of 0.001 to 0.01 µM was found for O=C(NNc1cc(O)ncn1)C(=O)N[C@H](Cc1ccc(-c2cccc(Cl)c2)cc1)C[C@@H](O)C(=O)O [Example 6-5, (2R,4R)-5-(3′-Chlorobiphenyl-4-yl)-2-hydroxy-4-{[N′-(6-hydroxy-pyrimidin-4-yl)-hydrazinooxalyl]amino}-pentanoic acid] in this work.

A Ki of 0.001 to 0.01 µM was found for C[C@H]1COC[C@H](C)N1C(=O)C(=O)N[C@H](Cc1ccc(-c2cccc(Cl)c2)cc1)C[C@@H](O)C(=O)O [Example 4-47, (2R,4R)-5-(3′-Chlorobiphenyl-4-yl)-4-[2-((3S,5S)-3,5-dimethylmorpholin-4-yl)-2-oxo-acetylamino]-2-hydroxypentanoic acid] in this work.

A Ki of 0.001 to 0.01 µM was found for COC(=O)N1CCN(C(=O)C(=O)N[C@H](Cc2ccc(-c3cccc(Cl)c3)cc2)C[C@@H](O)C(=O)O)CC1 [Example 4-41, 4-[(1R,3R)-3-Carboxy-1-(3′-chlorobiphenyl-4-ylmethyl)-3-hydroxy-propylaminooxalyl]-piperazine-1-carboxylic acid methyl ester] in this work.

A Ki of 0.01 to 0.0316 µM was found for N#Cc1ccccc1N1CCN(C(=O)C(=O)N[C@H](Cc2ccc(-c3cccc(Cl)c3)cc2)C[C@@H](O)C(=O)O)CC1 [Example 4-37, (2R,4R)-5-(3′-Chlorobiphenyl-4-yl)-4-{2-[4-(2-cyano-phenyl)-piperazin-1-yl]-2-oxo-acetylamino}-2-hydroxypentanoic acid] in this work.

A Ki of 0.01 to 0.0316 µM was found for NC(=O)C1CCN(C(=O)C(=O)N[C@H](Cc2ccc(-c3cccc(Cl)c3)cc2)C[C@@H](O)C(=O)O)CC1 [Example 4-29, (2R,4R)-4-[2-(4-Carbamoyl-piperidin-1-yl)-2-oxo-acetylamino]-5-(3′-chlorobiphenyl-4-yl)-2-hydroxypentanoic acid] in this work.

A Ki of 0.01 to 0.0316 µM was found for NC(=O)C1CCN(C(=O)C(=O)N[C@H](Cc2ccc(-c3cccc(Cl)c3)cc2)C[C@@H](O)C(=O)O)C1 (stereo partly drawn) [Example 4-17, (2R,4R)-4-[2-(3-Carbamoylpyrrolidin-1-yl)-2-oxo-acetylamino]-5-(3′-chloro-biphenyl-4-yl)-2-hydroxypentanoic acid] in this work.

A Ki of 0.001 to 0.01 µM was found for O=C(COc1cccnc1)N[C@H](Cc1ccc(-c2cccc(Cl)c2)cc1)C[C@@H](O)C(=O)O [Example 10-5, (2R,4R)-5-(3′-Chlorobiphenyl-4-yl)-2-hydroxy-4-[2-(pyridin-3-yloxy)-acetylamino]-pentanoic acid] in this work.

A Ki of 0.01 to 0.0316 µM was found for CCOCCN1CCN(C(=O)C(=O)N[C@H](Cc2ccc(-c3cccc(Cl)c3)cc2)C[C@@H](O)C(=O)O)CC1 [Example 4-38, (2R,4R)-5-(3′-Chlorobiphenyl-4-yl)-4-{2-[4-(2-ethoxy-ethyl)-piperazin-1-yl]-2-oxo-acetylamino}-2-hydroxypentanoic acid] in this work.

A Ki of 0.01 to 0.0316 µM was found for O=C(Nc1ccncc1)C(=O)N[C@H](Cc1ccc(-c2cccc(Cl)c2)cc1)C[C@@H](O)C(=O)O [Example 4-3, (2R,4R)-5-(3′-Chlorobiphenyl-4-yl)-2-hydroxy-4-[(pyridin-4-ylaminooxalyl)-amino]-pentanoic acid] in this work.
